Laboratory results taken from PubChem BioAssay (NCI).
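Exposure lasted 48 hours, with cells grown in 96-well plates and compounds tested at five concentrations. Definition used: TGI = concentration required for complete inhibition of growth.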

Tests used:
Assay in all cases: DTP human tumour cell line panel, 48 h
786-0 renal = tested on: 786-0 renal
HCT-116 colon = tested on: HCT-116 colon
HT29 colon = tested on: HT29 colon
K-562 leukemia = tested on: K-562 leukemia
LOX IMVI melanoma = tested on: LOX IMVI melanoma

SMILES | TGI (786-0 renal) [µM] | TGI (HCT-116 colon) [µM] | TGI (HT29 colon) [µM] | TGI (K-562 leukemia) [µM] | TGI (LOX IMVI melanoma) [µM]
N#CC(O)CCOCc1ccccc1 (stereo not drawn) | > 100 | > 100 | > 100 | > 100 | > 100
Cn1c(=O)c2c(nc3n2CCCC(=O)N3CCCCl)n(C)c1=O | > 100 | > 100 | > 100 | > 100 | > 100
CC(NNC(=O)c1ccncc1)c1ccccc1 (stereo not drawn) | > 100 | > 100 | > 100 | > 100 | > 100
Nc1nc(Cl)c(N)c(NCC2(CO)CCC(OCc3ccccc3)C2)n1 (stereo not drawn) | > 100 | > 100 | > 100 | > 100 | > 100
Oc1ccc(Br)cc1C=Nc1c(NC2CCCCC2)oc2ccc(Br)cc12 | > 100 | 28.7 | 78.4 | 29.2 | 38.7
NCCCN(CCCCN(CCCN)Cc1ccccc1)Cc1ccccc1 | 77.5 | > 100 | 44.1 | > 100 | 40.5
CN(C)c1ccc(N=C2N=C(Nc3ccccc3)C(=Nc3ccccc3)S2)cc1 | > 100 | > 100 | > 100 | – | > 100
CC(C(=O)NCNC(=O)c1ccccc1)C(=O)Nc1ccccc1 (stereo not drawn) | > 100 | > 100 | > 100 | – | –
CCOC(=O)c1c(NC(=S)Nc2ccccc2)sc2c1CCN(C)C2 | > 100 | > 100 | > 100 | > 100 | –
COC(=O)CN(CC(=O)NCCNC(=O)OC(C)(C)C)C1CCCCC1N(CC(=O)OC)CC(=O)OC (stereo not drawn) | > 100 | > 100 | > 100 | > 100 | > 100
C/C(O)=C(/C=N/C(=S)Nc1ccccc1)C(=O)Nc1ccccc1C | > 100 | > 100 | > 100 | > 100 | > 100
O=S(=O)(CC(Cl)c1ccccc1)c1nc2ccccc2s1 (stereo not drawn) | 19.4 | 23.6 | 21.2 | 7.43 | 4.04
CC(C)CC(=O)CC(C)[C@]1(CCCOCc2ccccc2)C(=O)N2CCC3(C[C@@]24CCC[C@H]41)OCCO3 (stereo partly drawn) | > 10 | – | – | > 10 | –
O=C1c2ccccc2CC12Cc1cc3c(cc1C2)CCC3 | > 100 | > 100 | 62.1 | > 100 | > 100
Cc1cccc2c(N)c3cccc(C(=O)NCC[N+](C)(C)Cc4ccccc4[N+](=O)[O-])c3nc12 | 12.7 | > 100 | 19.8 | > 31.8 | > 100
Cc1nc2ccc(Cl)cc2c2c1CCN2c1ccc(F)cc1 | > 100 | > 100 | > 100 | > 100 | 78.1
O=C(N/C(=C\c1ccccc1)c1nc2ccccc2c(=O)o1)c1ccccc1 | > 100 | > 100 | > 100 | > 100 | > 100
C/C(=C/CC[C@](C)(OC1OC(CO)C(O)C(O)C1O)[C@H]1CC[C@]2(C)[C@@H]1CC[C@@H]1[C@@]3(C)CC[C@H](O)C(C)(C)[C@@H]3C[C@H](O)[C@]12CO)CO (stereo partly drawn) | > 100 | > 100 | > 100 | > 100 | > 100
